Here are results for six compounds from patent publication US20260085081A1, “PHOSPHATIDYLAMINE COMPOUNDS INCLUDING A PLURALITY OF TERTIARY AMINO GROUP STRUCTURES AND COMPOSITIONS THEREOF” (PEKING UNIVERSITY, priority 2022, published 2026).

In one data set the test system is joint cavity. The data set is described as follows: Intra-articular injection of Fluc-mRNA LNPs, luciferase expression in the joint cavity (IVIS). The class given is in vivo, ICR mice.
Data set [1] has as its system Fluc-mRNA (luciferase expression). The data set is described as follows: In vivo transfection efficiency of Fluc-mRNA lipid nanoparticles after intramuscular injection. Also on record: species or system mice. The following applies: for expression in vivo compared with control MC3 / in vivo transfection (expression, FIG. 5): 3 μg Fluc-mRNA/mouse; for Intramuscular injection (PL/MC3) expression strength level: ratio of expression PL/MC3; for in vivo transfection (expression, FIG. 5): weight ratio lipid nanoparticle/RNA 10:1, DOPE or DSPC group. The protocol:
6 h after intramuscular injection of mRNA LNPs, mice were injected intraperitoneally with 0.2 mL […] (20 mg/mL PBS solution). After 10 min, mice were anesthetized with isoflurane in oxygen in a ventilated anesthesia room and imaged with an imaging system (IVIS, PerkinElmer), and luminescence was quantified using Living Image software (PerkinElmer).

Data set [2] is described as follows: Summary of the strongest expressions over the administration routes. Particulars: strongest level of the three administrations. From the text: (§1) Finally, the expression levels of lipid nanoparticles with a plurality of tertiary amine groups from the embodiments of the present disclosure after intramuscular injection, white adipocyte administration, and intraperitoneal injection are summarized, and compared with lipid nanoparticles prepared from commercially available cationic lipids MC3 and SM102. […] However, the expression rates of the phosphatidylamine lipids with a plurality of tertiary amine groups from embodiments of the present disclosure are higher than that of SM102.

Another data set relates to white adipocyte. Put plainly: White adipocyte administration, expression relative to SM102. The following applies: ratio of expression PL/SM102. The data set is classed as cell-based.
Source text: as §1

The nature of data set [3]: Particle size of lipid nanoparticles (dynamic light scattering). The class given is physicochemical. The protocol:
The particle size of the lipid nanoparticles and the distribution (size, PDI) were determined by Malvern Zetasizer Nano ZS laser particle sizer according to dynamic light scattering (DLS). The samples were diluted 100-fold with PBS before measurement, and 1 mL was taken for measurement. The measurement was repeated three times in parallel for each sample.

Another data set concerns NIH-3T3 cells. Put plainly: Transfection efficiency of lipid nanoparticles in NIH-3T3 cells. The data set is classed as cell-based, murine. The protocol: The prepared cationic compounds (PL1, PL4, PL8, PL10, PL11, PL12, PL13, PL14, PL17, PL18, PL23, PL24, PL26, PL27, PL28, PL29, PL30, PL31, PL32, PL33, PL36, PL38, PL41, PL44, PL45, PL53, PL54, PL55, PL56, PL57, PL58, PL59, PL60, PL61, PL78, PL79, PL93, PL94, PL95, PL96, PL97, PL103), DOPE/DSPC, cholesterol, and DMG-PEG2000 are prepared with ethanol in a molar ratio of 35:16:46.5:2.5 to form the ethanol phase, and RNA is formulated into the aqueous phase with 50 mM citrate buffer solution at pH=4. Lipid nanoparticles are obtained by microfluidic mixing at aqueous phase:ethanol phase=3:1 (v/v), followed by dialysis purification in PBS at pH 7.4 overnight to remove ethanol.
(§2) Determination process included: preparing a 96-well plate, inoculating cells (4000 cells/well), adding 100 μL of medium, incubating at 37° C. overnight; after 24 h, adding lipid nanoparticles diluted with medium (achieving the final concentration of RNA of 10 µg/mL), incubating at 37° C. for 24 h, and then adding 50 μL of specialized luciferase substrate to each well, followed by detection using by a microplate reader (chemiluminescence).
FIG. 1A and FIG. 1B illustrate transfection of lipid nanoparticles of a DOPE group and a DSPC group in NIH3T3 cells according to some embodiments of the present disclosure. Specifically, for compounds PL1, PL4, PL6, PL8, PL10, PL11, PL12, lipid nanoparticles are prepared by DOPE and DSPC, respectively, according to an […] (Example 44). The transfection efficiency of these two groups of lipid nanoparticles in cells is first evaluated, and murine fibroblasts NIH-3T3 are selected for incubation (Example 47), and the results are shown in FIG. 1A and FIG. 1B. […] PL10, PL11, and PL12 all include two tertiary amino groups.

A further data set concerns most cells and tissues. Particulars: reported; cited from earlier work.
A further data set has as its system adipose tissue. The data set is described as follows: Intraperitoneal injection of Fluc-mRNA LNPs, expression and distribution. The class given is in vivo, mice. The following applies: ratio of expression PL/SM102. The protocol:
FIG. 10 illustrates the effect of Fluc-mRNA LNPs composed of different structural cationic lipids on the mRNA delivery efficiency after intraperitoneal administration according to some embodiments of the present disclosure. Targeting and expression of PL lipids on adipose tissue after intraperitoneal administration is also evaluated. […] That is to say, the PL lipid structure with the plurality of tertiary amino group structures may enhance the selective targeting of visceral adipocytes. […]
as §1

Data set [4] has as its system human hepatocellular carcinoma HepG2 cells. Put plainly: Transfection efficiency of lipid nanoparticles in HepG2 cells. The class given is cell-based. The protocol: as §2
FIG. 2A and FIG. 2B illustrate encapsulation efficiency of lipid nanoparticles and cell transfection efficiency according to some embodiments of the present disclosure. FIG. 2A is the encapsulation efficiency of lipid nanoparticles in the DOPE/DSPC groups, and FIG. 2B is the transfection efficiency in HepG2 cells. PL1, PL10, and PL12 from the DOPE group, and PL11 and PL12 from the DSPC group are selected to further explore the transfection efficiency in human hepatocellular carcinoma HepG2 cells. LNP is first prepared using microfluidic approach (Example 44) and the encapsulation efficiency of LNP is measured (Example 46), and the results are shown in FIG. 2A. […] PL10 has the best effect, which is 400-fold of that of LNPs in the control group MC3. The experiment also further illustrates that PL lipids have excellent cell transfection efficiency and stable effect in different cell lines.

Data set [5] is described as follows: Encapsulation efficiency of lipid nanoparticles (RiboGreen assay). The data set is classed as physicochemical. The protocol:
The total RNA concentration and the encapsulation efficiency were determined using a RiboGreen assay. Determination process included: taking a black 96-well plate, adding 50 μL TE buffer/Triton X to A1-A8/B1-B8, respectively (A1-A6/B1-B6 for the standard curve, A7-8/B7-8 for samples), then adding the RNA TE (Tris-EDTA) dilution solutions (2 ng/μL, 1 ng/μL, 0.5 ng/μL, 0.25 ng/μL, 0.125 ng/μL, 0 ng/μL) to the above wells A1-A6/B1-B6 as the standard curve, adding 50 μL nanoparticle dilution solution to A7-A8/B7-B8, and shaking at 37° C. for 15 min, subsequently, adding 100 μL of RiboGreen solution (diluted 400-fold with TE buffer) to each well, and shaking for 3-5 min, and detecting the fluorescence intensity of each well by a microplate reader at an excitation wavelength of 485 nm and an emission wavelength of 515 nm.

SMILES strings stand for the structures.

Method for joint cavity: Images of luciferase expression in the joint cavity are detected with an IVIS imaging system at 6 h, 12 h, 24 h, 48 h, 72 h, and 96 h after intra-articular injection of 2 μg of Fluc-mRNA LNPs (PL10, PL14, and PL17, n=3).

With `CCCCC/C=C\C/C=C\CCCCCCCCOP(=O)(NCCCN1CCN(CCCN(CCCCCCCCCCCC)CCCCCCCCCCCC)CC1)OCCCCCCCC/C=C\C/C=C\CCCCC` [PL14], in the data set on joint cavity (2 μg Fluc-mRNA LNPs, 6 h to 96 h), the “expression efficiency after intra-articular injection” value is “higher and more long-lasting expression efficiencies compared to both PL10 and PL17 LNPs”. For the same compound, the “distribution and expression outside the joint after intra-articular injection” value in the data set with joint cavity (liver) was “distributed and expressed non-specifically in the liver”. Besides, in [1] (DOPE group, weight ratio 10:1), the “expression in vivo compared with control MC3” value is on record as “better than that of control MC3”. Further, the “enhancement of in vivo expression with respect to control MC3” value in data set [1] (DOPE group, weight ratio 10:1, 3 g Fluc-mRNA/mouse) was “an order of magnitude enhancement”. In data set [1], the “Intramuscular injection (PL/MC3) expression strength level” value (“Intramuscular injection” for short) is recorded as “A (A: ≥2)” and the “in vivo transfection (expression, FIG. 5)” value (from here on “in vivo transfection”) is “expressed”. Besides, the “Summary of the strongest expressions” value in [2] was “A (A: ≥2)”. Further, in the data set with white adipocyte, the “White adipocyte administration (PL/SM102) expression strength level” value (shortened to “White adipocyte administration”) was “C (C: ≥0.1 and <1)”. The nanoparticle particle size result in [3] (optimized formulation: decreased proportion of PEG, increased volume of aqueous phase) was “around 200 nm”.
As for `CCCCC/C=C\C/C=C\CCCCCCCCOP(=O)(NCCCN(C)C)OCCCCCCCC/C=C\C/C=C\CCCCC` [PL1], the “in vivo transfection” value in data set [1] is “expressed”. The “transfection efficiency relative to MC3 LNP” value with NIH-3T3 cells (DOPE group LNP) was determined as 16 fold.
`CCCCCCCCCCCOC(=O)CCCCCN(CCO)CCCCCCCC(=O)OC(CCCCCCCC)CCCCCCCC` [SM102]: the “expression compared with MC3” value in the data set on most cells and tissues is on record as “at least ten-fold higher than that of MC3”.
Regarding `CCCCC/C=C\C/C=C\CCCCCCCCOP(=O)(NCCN(CCCCCCCCCC(=O)OC(CC)CCCCC)CCCN(C)C)OCCCC(=O)OCCCCCCCCCCC` (stereo not shown) [PL12], in [1], the “Intramuscular injection” value is given as “A (A: ≥2)” and the “in vivo transfection” value is given as “expressed”. Further, in [2], the “Summary of the strongest expressions” value is on record as “A (A: ≥2)”. Also, the “transfection efficiency relative to MC3 LNP” value with NIH-3T3 cells (DOPE group LNP) worked out at 7 fold. Besides, the “transfection efficiency relative to MC3 LNP” value in the data set with NIH-3T3 cells (DSPC group LNP) is listed as 1.5 fold. Further, in the data set with white adipocyte, the “White adipocyte administration” value was “D (D: <0.1)”.
On to `CCCCC/C=C\C/C=C\CCCCCCCCOP(=O)(NCCN(CCCCCCCCCCCC)CCCN(C)C)OCCCC(=O)OCCCCCCCCCCC` (stereo not shown) [PL11], for which the “expression in vivo compared with control MC3” value in data set [1] (DOPE group, weight ratio 10:1) was “close to that of MC3”. Further, in [1], the “Intramuscular injection” value is “C (C: ≥0.1 and <1)”; the “in vivo transfection” value is recorded as “expressed”. In addition, the “Summary of the strongest expressions” value in data set [2] is “C (C: ≥0.1 and <1)”. Moreover, the “transfection efficiency relative to MC3 LNP” value in the data set on NIH-3T3 cells (DSPC group LNP) is listed as 3 fold. The “White adipocyte administration” value in the data set with white adipocyte is “C (C: ≥0.1 and <1)”.
Turning to `CCCCC/C=C\C/C=C\CCCCCCCCOP(=O)(NCCN(CCCCCCCCCCCC)CCCN(C)C)OCCCCCCCC/C=C\C/C=C\CCCCC` [PL10], the “Intraperitoneal injection (PL/SM102) expression strength level” value in the data set with adipose tissue is “D (D: <0.1)”. Moreover, the “transfection efficiency relative to LNPs of control group MC3” value in data set [4] was found to be 400 fold. The “expression in vivo compared with control MC3” value in [1] (DOPE group, weight ratio 10:1) is listed as “better than that of control MC3”. Further, the “Intramuscular injection” value in data set [1] is “A (A: ≥2)”. Besides, in data set [1] (weight ratio cationic lipid/RNA 15:1, 3 μg Fluc-mRNA), the “in vivo fluorescence signal” value is “no fluorescence signal”. Further, in data set [1], the “in vivo transfection” value is given as “expressed”. Also, the “in vivo expression relative to MC3 LNP” value stood at 3 fold in [1] (weight ratio lipid nanoparticles/RNA 5:1, 3 μg Fluc-mRNA) and 10 fold in data set [1] (weight ratio lipid nanoparticles/RNA 10:1, 3 μg Fluc-mRNA). In addition, in data set [2], the “Summary of the strongest expressions” value is “A (A: ≥2)”. The “transfection efficiency relative to MC3 LNP” value with NIH-3T3 cells (DOPE group LNP) is given as 22 fold. In addition, the encapsulation efficiency result is on record as “around 50%” in [5] (DOPE LNP, microfluidic preparation); “more than 30%” in data set [5] (weight ratio cationic PL lipid/RNA 5:1 (lowest lipid)); “about 70%” in [5] (weight ratio cationic PL lipid/RNA 15:1 (most lipid)). Also, in the data set with white adipocyte, the “White adipocyte administration” value is “C (C: ≥0.1 and <1)”. The particle size in data set [3] (weight ratio lipid nanoparticle/RNA 5:1) is on record as 200 nm; in data set [3] (weight ratio lipid nanoparticle/RNA 15:1), 150 nm.
